According to patent US6905841B2, “Enzymatic substrates for detecting Pseudomonas aeruginas” (Biomerieux S.A., priority 1999, dated 2005):
Like-named read-outs stand apart in the source and are kept apart here.

Columns and labels:
[1] = system: β-alanine aminopeptidase; conditions: Klebsiella oxytoca; 2 strains tested; read after 22 to 24 hours
[2] = system: β-alanine aminopeptidase; conditions: Vibrio vulnificus; 1 strain tested; read after 22 to 24 hours
[3] = system: β-alanine aminopeptidase; conditions: Citrobacter amalonaticus; 2 strains tested; read after 22 to 24 hours
[4] = system: β-alanine aminopeptidase; conditions: Klebsiella pneumoniae; 3 strains tested; read after 22 to 24 hours
[5] = system: β-alanine aminopeptidase; conditions: Aeromonas hydrophila; 2 strains tested; read after 22 to 24 hours
[6] = system: β-alanine aminopeptidase; conditions: Ralstonia pickettii; 1 strain tested; read after 22 to 24 hours
[7] = system: β-alanine aminopeptidase; conditions: Moraxella non liquefaciens; 2 strains tested; read after 22 to 24 hours
[8] = system: β-alanine aminopeptidase; conditions: Shewanella putrefaciens; 1 strain tested; read after 22 to 24 hours
[9] = system: β-alanine aminopeptidase; conditions: Proteus vulgaris; 1 strain tested; read after 22 to 24 hours
[10] = system: β-alanine aminopeptidase; conditions: Pseudomonas stutzeri; 3 strains tested; read after 22 to 24 hours
[11] = system: β-alanine aminopeptidase; conditions: Serratia liquefaciens; 1 strain tested; read after 22 to 24 hours
[12] = system: β-alanine aminopeptidase; experiment: APIZYM-type test strips with β-alanyl-β-naphthylamide; format: cell-based; conditions: Pasteurella gallinarum; 1 strain
[13] = system: β-alanine aminopeptidase; experiment: as above; format: cell-based; conditions: Serratia liquefaciens; five strains
[14] = system: β-alanine aminopeptidase; format: cell-based; conditions: out of the seventy nine (79) tested
[15] = system: β-alanine aminopeptidase; experiment: APIZYM-type test strips with β-alanyl-β-naphthylamide; format: cell-based; conditions: Enterobacter aerogenes; five strains
[16] = system: β-alanine aminopeptidase; experiment: as above; format: cell-based; conditions: Proteus morganii; five strains
[17] = system: β-alanine aminopeptidase; experiment: as above; format: cell-based; conditions: Pseudomonas oryzihabitans; five strains
[18] = system: β-alanine aminopeptidase; experiment: as above; format: cell-based; conditions: Actinobacillus spp.; five strains
[19] = system: β-alanine aminopeptidase; experiment: as above; format: cell-based; conditions: Vibrio alginolyticus; five strains
[20] = system: β-alanine aminopeptidase; experiment: as above; format: cell-based; conditions: Citrobacter diversus; five strains
[21] = system: β-alanine aminopeptidase; experiment: as above; format: cell-based; conditions: Moraxella lac. sp. liquefaciens; 7 strains
[22] = system: β-alanine aminopeptidase; experiment: as above; format: cell-based; conditions: Aeromonas hydrophila; five strains
[23] = system: β-alanine aminopeptidase; experiment: as above; format: cell-based; conditions: Pasteurella multocida; five strains
[24] = system: β-alanine aminopeptidase; experiment: as above; format: cell-based; conditions: Serratia fonticola; five strains
[25] = system: β-alanine aminopeptidase; experiment: as above; format: cell-based; conditions: Enterobacter cloacae; five strains
[26] = system: β-alanine aminopeptidase; experiment: as above; format: cell-based; conditions: Chryseobacterium balustinum; 1 strain
[27] = system: β-alanine aminopeptidase; experiment: as above; format: cell-based; conditions: Klebsiella pneumoniae, spp. pneumoniae; five strains
[28] = system: β-alanine aminopeptidase; experiment: as above; format: cell-based; conditions: Moraxella lacunata; 4 strains
[29] = system: β-alanine aminopeptidase; experiment: as above; format: cell-based; conditions: Sphingomonas paucimobilis; five strains
[30] = system: β-alanine aminopeptidase; experiment: as above; format: cell-based; conditions: Edwarsiella tarda; 2 strains
[31] = system: β-alanine aminopeptidase; experiment: as above; format: cell-based; conditions: Proteus mirabilis; five strains
[32] = system: β-alanine aminopeptidase; experiment: as above; format: cell-based; conditions: Enterobacter gergoviae; five strains
[33] = system: β-alanine aminopeptidase; experiment: as above; format: cell-based; conditions: Chryseobacterium indologenes; five strains
[34] = system: β-alanine aminopeptidase; experiment: as above; format: cell-based; conditions: Pseudomonas aeruginosa; five strains
[35] = system: β-alanine aminopeptidase; experiment: as above; format: cell-based; conditions: Pasteurella pneumotropica; 4 strains
[36] = system: β-alanine aminopeptidase; experiment: as above; format: cell-based; conditions: Salmonella paratyphi A; five strains
[37] = system: β-alanine aminopeptidase; experiment: as above; format: cell-based; conditions: Pasteurella aerogenes; five strains
[38] = system: β-alanine aminopeptidase; experiment: as above; format: cell-based; conditions: Weeksella virosa; 4 strains

NCCC(=O)c1c(N)cc(Cl)c(O)c1Cl
Number of negative results [1]: 2
Number positive results [1]: 0
Number of negative results [2]: 1
Number positive results [2]: 0
Number of negative results [3]: 2
Number positive results [3]: 0
Number of negative results [4]: 3
Number positive results [4]: 0
Number of negative results [5]: 2
Number positive results [5]: 0
Number of negative results [6]: 1
Number positive results [6]: 0
Number of negative results [7]: 2
Number positive results [7]: 0
Number of negative results [8]: 1
Number positive results [8]: 0
Number of negative results [9]: 1
Number positive results [9]: 0
Number of negative results [10]: 3
Number positive results [10]: 0
Number of negative results [11]: 0
Number positive results [11]: 1

β-alanyl-β-naphthylamide
β-alanine aminopeptidase activity, result [12]: negative
β-alanine aminopeptidase activity, result [13]: positive
number of species found to possess β-alanine aminopeptidase activity [14]: 6 species
β-alanine aminopeptidase activity, result [15]: negative
β-alanine aminopeptidase activity, result [16]: negative
β-alanine aminopeptidase activity, result [17]: negative
β-alanine aminopeptidase activity, result [18]: negative
β-alanine aminopeptidase activity, result [19]: negative
β-alanine aminopeptidase activity, result [20]: negative
β-alanine aminopeptidase activity, result [21]: negative
β-alanine aminopeptidase activity, result [22]: negative
β-alanine aminopeptidase activity, result [23]: negative
β-alanine aminopeptidase activity, result [24]: negative
β-alanine aminopeptidase activity, result [25]: negative
β-alanine aminopeptidase activity, result [26]: negative
β-alanine aminopeptidase activity, result [27]: negative
β-alanine aminopeptidase activity, result [28]: negative
β-alanine aminopeptidase activity, result [29]: negative
β-alanine aminopeptidase activity, result [30]: negative
β-alanine aminopeptidase activity, result [31]: negative
β-alanine aminopeptidase activity, result [32]: negative
β-alanine aminopeptidase activity, result [33]: negative
β-alanine aminopeptidase activity, result [34]: positive
β-alanine aminopeptidase activity, result [35]: negative
β-alanine aminopeptidase activity, result [36]: negative
β-alanine aminopeptidase activity, result [37]: negative
β-alanine aminopeptidase activity, result [38]: negative
